Laboratory results taken from ChEMBL document CHEMBL5352390, “Design, synthesis and biological evaluation of (Quinazoline 4-yloxy)acetamide and (4-oxoquinazoline-3(4H)-yl)acetamide derivatives as inhibitors of Mycobacterium tuberculosis bd oxidase” (2022).
Converted amounts (≈) assume the structure as drawn.

Tested on: Mycobacterium tuberculosis
Assay: Antimycobacterial activity against Mycobacterium tuberculosis H37Rv harboring qcrB deletion mutant assessed as inhibition of bacterial growth incubated for 7 days by resazurin microplate assay
Assay type: functional
Conditions: time 7 day

| SMILES | MIC |
| --- | --- |
| O=C(Cn1cnc2ccccc2c1=O)NC1=C(C(F)(F)F)CCC=C1 | >32 µM |
| O=C(Cn1cnc2ccccc2c1=O)Nc1ccc([N+](=O)[O-])cc1 | >32 µM |
| O=C(COc1ncnc2ccccc12)NCc1ccc(N2CCN(c3ccccc3)CC2)cc1 | >32 µM |
| COc1ccc(NC(=O)Cn2cnc3ccccc3c2=O)cc1 | >32 µM |
| O=C(COc1ncnc2ccccc12)Nc1ccc(Cl)cc1 | 16 µM (≈ 5.02 µg/mL) |
| O=C(COc1ncnc2ccccc12)Nc1ccc(F)cc1 | >32 µM |
| O=C(Cn1cnc2ccccc2c1=O)Nc1ccc(OC(F)(F)F)cc1 | >32 µM |
| O=C(COc1ncnc2ccccc12)NCc1ccccc1 | >32 µM |
| COc1ccc(NC(=O)COc2ncnc3ccccc23)cc1 | >32 µM |
| O=C(COc1ncnc2ccccc12)NCc1ccc(N2CCN(Cc3ccccc3)CC2)cc1 | >32 µM |
| O=C(Cn1cnc2ccccc2c1=O)Nc1ccccc1 | >32 µM |
| O=C(Cn1cnc2ccccc2c1=O)Nc1ccc(C(F)(F)F)cc1 | >32 µM |
| O=C(COc1ncnc2ccccc12)Nc1ccc(C(F)(F)F)cc1 | >32 µM |
| Cc1ccccc1NC(=O)COc1ncnc2ccccc12 | >32 µM |
| CSc1ccc(NC(=O)Cn2cnc3ccccc3c2=O)cc1 | >32 µM |
| O=C(COc1ncnc2ccccc12)Nc1ccccc1 | 8 µM (≈ 2.23 µg/mL) |
| O=C(Cn1cnc2ccccc2c1=O)Nc1ccc(F)cc1 | >32 µM |
| COc1ccccc1NC(=O)COc1ncnc2ccccc12 | >32 µM |
| O=C(COc1ncnc2ccccc12)Nc1ccc(OC(F)(F)F)cc1 | >32 µM |
| Cc1ccc(NC(=O)COc2ncnc3ccccc23)cc1 | >32 µM |
| COc1ccc(N2CCN(c3ccc(CNC(=O)COc4ncnc5ccccc45)cc3)CC2)cc1 | >32 µM |
| O=C(COc1ncnc2ccccc12)NCc1ccc(N2CCC(c3ccccc3)CC2)cc1 | >32 µM |
| O=C(COc1ncnc2ccccc12)Nc1ccc(Br)cc1 | >32 µM |
| O=C(Cn1cnc2ccccc2c1=O)Nc1ccc(Br)cc1 | >32 µM |
| COc1ccccc1NC(=O)Cn1cnc2ccccc2c1=O | >32 µM |
| O=C(COc1ncnc2ccccc12)Nc1cccc2ccccc12 | >32 µM |
| O=C(COc1ncnc2ccccc12)NCc1ccc(N2CCN(c3ccc(F)cc3)CC2)cc1 | >32 µM |
| Cc1ccc(NC(=O)Cn2cnc3ccccc3c2=O)cc1 | >32 µM |
| O=C(Cn1cnc2ccccc2c1=O)Nc1ccc(Cl)cc1 | >32 µM |
